Results reported in patent publication US20110136665A1.

How the values were obtained:
Leptosphaeria nodorum = assay: Activity against Septoria nodorum blotch of wheat caused by Leptosphaeria nodorum
Protocol: (§1) The mixture was then made up with water to 100 ml.
The next day, the pots were inoculated with an aqueous spore suspension of Leptosphaeria nodorum (syn. Stagonospora nodorum, Septoria nodorum). The plants were then placed in a chamber at 20° C. and maximum atmospheric humidity.

Alternaria solani = assay: Persistency against early blight on tomatoes caused by Alternaria solani, 5 day protective treatment; conditions: tomato
Protocol: as §1
To test for persistency, the leaves were infected with an aqueous spore suspension of Alternaria solani in a 2% strength biomalt solution having a density of 0.17×10^6 spores/ml only after 5 days. The plants were then placed in a water-vapor-saturated chamber at temperatures between 20 and 22° C.
Evaluation was carried out analogously to Example 1.

Row | SMILES | Efficacy in % of the untrated control (Leptosphaeria nodorum; 1.6 ppm in spray liquor) [%] | Efficacy in % of the untrated control (Leptosphaeria nodorum; 3.1 ppm in spray liquor) [%] | Efficacy in % of the untrated control (Leptosphaeria nodorum; 12.5 ppm in spray liquor) [%] | Efficacy in % of the untrated control (Alternaria solani; 6.25 ppm in spray liquor) [%] | Efficacy in % of the untrated control (Leptosphaeria nodorum; 0.4 ppm in spray liquor) [%] | Efficacy in % of the untrated control (Leptosphaeria nodorum; 0.8 ppm in spray liquor) [%] | Efficacy in % of the untrated control (Alternaria solani; 0.8 ppm in spray liquor) [%] | Efficacy in % of the untrated control (Alternaria solani; 1.6 ppm in spray liquor) [%] | Efficacy in % of the untrated control (Alternaria solani; 3.1 ppm in spray liquor) [%] | Efficacy in % of the untrated control (Alternaria solani; 25 ppm in spray liquor) [%]
1 | O=C(Nc1ccccc1-c1ccc(Cl)cc1)c1cccnc1Cl [boscalid, 2-chloro-N-(4′-chlorobiphenyl-2-yl)nicotinamide] | 0 | 11 | 33 | 0 |  |  |  |  |  | 
2 | Fc1ccc([C@]2(Cn3cncn3)O[C@H]2c2ccccc2Cl)cc1 (racemic) [epoxiconazole, (2RS,3SR)-1-[3-(2-chlorophenyl)-2,3-epoxy-2-(4-fluorophenyl)propyl]-1H-1,2,4-triazole] | 33 |  |  | 0 | 0 | 0 | 0 | 0 | 0 | 0
3 | CC1(C)CCC(Cc2ccc(Cl)cc2)C1(O)Cn1cncn1 (stereo not drawn) [metconazole, 5-(4-chlorobenzyl)-2,2-dimethyl-1-[1,2,4]triazol-1-ylmethylcyclopentanol] | 56 |  |  |  | 0 | 0 |  |  |  | 
